{
  "source": "patent US20260139063A1",
  "about": "“PRE-MEDICATION AND IMPROVED TREATMENT REGIMEN” (MonTa Biosciences ApS, priority 2022, published 2026)",
  "key": {"[1]": {"tested_on": "plasma cytokines and chemokines", "assay": "Clinical plasma biomarkers (cytokines and chemokines, MSD multiplex panels) after MBS8(1V270) with or without tocilizumab pre-medication", "format": "in vivo, human", "details": "patients", "experimental": "FIG. 1: Detection of cytokines in plasma of subjects treated with 0.1 mg/kg MBS8(1V270) without (left panels) or with (right panels) pre-medication with tocilizumab (8 mg/kg). The measurements were done using GLP/GCP compliant multiplex panels purchased from Meso Scale Discovery (MSD) (Cytokine Panel 1 Human kit, Cytokine Panel 2 Human kit and Chemokine Panel 1 Human kit). Data treatment was performed using GraphPad Prism 9 software. Selected biomarkers were IL-6 (FIG. 1A), TNF-α (FIG. 1B), IL-1RA (FIG. 1C), IFN-γ (FIG. 1D), IP-10 (FIG. 1E), IL-1β (FIG. 1F), IL-8 (FIG. 1G) and IL-10 (FIG. 1H).\nMBS8(1V270) was administered to all subjects at 0.1 mg/kg by IV infusion for a duration of 2 hours for four dosing occasions. Infusions were given one week apart on Days 1, 8, 15, and 22. Patients pretreated with tocilizumab were administered tocilizumab (8 mg/kg) prior to MBS8(1V270) infusion on the first dosing occasion (day 1) as a CRS preventive measure. The biomarkers were measured using GLP/GCP compliant and validated multiplex panels purchased from MSD in a quantitative procedure to measure these cytokines and chemokines.\nThe following plasma biomarkers were identified in this clinical study: safety-related (IL-1β, IL-8, IL-6, TNF-α and IL-10) and pharmacodynamics biomarkers (IFN-γ, MCP-1, IP-10, IL-1RA and IL-12p70) (FIG. 1A-1H). Blood samples were taken at pre-dose (0), 2 h, 8 h, and 24 h post-end of infusion and processed to plasma and frozen for later biomarker analyses."}, "[2]": {"tested_on": "subjects presenting with advanced solid tumors", "assay": "Occurrence of Cytokine Release Syndrome (CRS), CTCAE version 5.0 grading, on all dosing occasions", "format": "in vivo, human", "experimental": "FIG. 2: Table overview (FIG. 2A) of CRS occurrences in patients were assessed according to CTCAE grading, in patients treated with MBS8(1V270) on 4 occasions on day 1, 8, 15 and 22. Patient (pt) 1-3 were not pretreated with tocilizumab, whereas pt 4-7 were pretreated with tocilizumab prior to dosing with MBS8(1V270). All subjects received MBS8(1V270) at 0.1 mg/kg at each dosing occasion, and the clinical picture observed and rated according to the CTCAE grading shown in FIG. 2B. N/A=Not applicable. Table overview (FIG. 2B) of official CTCAE grading of patients with CRS symptoms as used for grading of CRS severeness for patients in FIG. 2A.CRS grading was done according to CTCAE Version 5.0.\nMBS8(1V270) was administered to all subjects at 0.1 mg/kg by IV infusion for a duration of 2 hours for four dosing occasions. Infusions were given one week apart on Days 1, 8, 15, and 22. Patients pretreated with tocilizumab were administered tocilizumab (8 mg/kg) prior to MBS8(1V270) infusion on the first dosing occasion as a CRS preventive measure. […] Seven subjects presenting with advanced solid tumors were treated with MBS8(1V270) at 0.1 mg/kg once weekly on four dosing occasions as described in Example 1. […] Tocilizumab was administered as a one-hour intravenous infusion at 8 mg/kg just prior to MBS8(1V270) administration.\nOccurrence of Cytokine Release Syndrome (CRS) was assessed on all dosing occasions. CRS was defined in accordance with Common Terminology Criteria for Adverse Events (CTCAE) version 5.0 as “a disorder characterized by fever, tachypnea, headache, tachycardia, hypotension, rash, and/or hypoxia caused by the release of cytokines”."}, "[3]": {"details": "tocilizumab 8 mg/kg prior to MBS8(1V270) 0.1 mg/kg IV"}, "[4]": {"details": "tocilizumab premedicated patients (pt 4-7): tocilizumab 8 mg/kg IV day 1 just prior to MBS8(1V270) 0.1 mg/kg IV, days 1, 8, 15, 22"}},
  "note": "Entries after “also recorded” stand apart in the source; their conditions may differ.",
  "data": [
    {"substance": "tocilizumab: humanized monoclonal antibody against the interleukin-6 receptor (IL-6R), CAS: 375823-41-9", "values": [
      {"measurement": "IFN-γ plasma level after tocilizumab premedication compared with without", "setting": "[1]; [3]", "result": "higher levels"},
      {"measurement": "IL-6 plasma level after tocilizumab premedication compared with without", "setting": "[1]; [3]", "result": "higher levels"},
      {"measurement": "IP-10 plasma level after tocilizumab premedication compared with without", "setting": "[1]; [3]", "result": "higher levels"},
      {"measurement": "interference of tocilizumab with the MoA of MBS8(1V270)", "setting": "[1]; [3]", "result": "does not interfere"},
      {"measurement": "effect of tocilizumab pre-medication on cytokine and chemokine levels expected to play a role for the anti-tumor activity of MBS8(1V270)", "setting": "[1]; tocilizumab 8 mg/kg prior to MBS8(1V270) 0.1 mg/kg IV infusion on day 1, plasma pre-dose, 2 h, 8 h, 24 h post-end of infusion", "result": "does not downregulate"},
      {"measurement": "CRS observed (clinical signs, CTCAE v5.0)", "setting": "[2]; patient 4-7 pretreated with tocilizumab 8 mg/kg before MBS8(1V270) 0.1 mg/kg", "result": "No clinical signs of CRS; also recorded: no CRS observed at any dosing occasion"},
      {"measurement": "CRS experienced, number of dosing occasions", "setting": "[2]; [4]", "result": "0 of the 14"},
      {"measurement": "CRS experienced, percent of dosing occasions", "setting": "[2]; [4]", "result": 0, "unit": "%"}
    ]}
  ]
}
